From patent publication US20220331435A1, “PROTAC SMALL MOLECULE COMPOUND AND USE THEREOF” (ZHUHAI YUFAN BIOTECHNOLOGIES CO., LTD, priority 2019, published 2022)
Like-named read-outs stand apart in the source and are kept apart here.

Assays:
Type in all cases: cell-based
HPK1 [1] = molecular target: T1, HPK1 (Homo sapiens, UniProt Q92918); assay: HPK1 degradation in Jurkat cells (Western blot); details: compound 100 nM
T1 construct: Jurkat cells were resuscitated, and then subjected to adherent culture for 12 h, compounds were added; endogenous in cells; host or cells: Jurkat cells

HPK1 [2] = molecular target: T1, HPK1; assay: HPK1 degradation in Jurkat cells (Western blot); details: for Degradation rate (12 h): 12 h (Table 2); for Degradation rate (10 nM) / Degradation rate (100 nM): HPK1, treatment time 12 h; for Degradation rate (10 nM): compound 10 nM; for HPK1 degradation rate at 0.1 µM: Jurkat, treatment time 6 h
Protocol: (§1) S1: Jurkat cells were resuscitated, and then subjected to adherent culture for 12 h, compounds were added, the compound concentrations were fixed (treatment time was 0 h, 3 h, 6 h, 12 h, 24 h and 72 h) or the treatment time was fixed (compound concentrations were 0 nM, 1 nM, 10 nM, 100 nM and 1000 nM);
(§2) S2: the culture solution was poured out, the cells were washed with 3 mL of PBS pre-cooled at 4° C., then the washing solution was discarded, an appropriate amount of lysis solution containing PMSF (100×) was added according to the cell amount, the mixture was uniformly mixed, then placed on ice for lysis for 30 min, and centrifuged at 12000 rpm and at 4° C. for 5 min, (a centrifuge was started for pre-cooling in advance), and the centrifuged supernatant was transferred into a new centrifuge tube and prepared for quantification;
(§3) S3: an BCA quantitative reagent of Pierce™ BCA Protein Assay Kit (23225) was added at 200 uL/well, then 20 uL of BSA with known different concentrations was added to prepare a protein quantitative standard curve and a sample protein to be detected with avoiding generation of bubbles, the mixture was incubated for 30 min in the dark at 37° C., an OD value was measured at 562 nm, then an appropriate amount of SDS-PAGE loading buffer was added to the protein sample, and the reaction mixture was heated for 5 min in a boiling water bath to fully denature the protein, and stored at −20° C. for later use;
(§4) S4: an SDS-PAGE gel was prepared, wherein the voltage of a concentrated gel was 90 V, and the voltage of a separation gel was 120 V, a membrane was transferred for 1 h at 4° C. and at a voltage of 100 V, after the membrane was transferred, the protein membrane was immediately placed in a prepared 5% BSA solution, and the mixture was slowly shaken on a shaker, and sealed for 1 h at room temperature;
(§5) S5: the primary antibody was diluted according to an appropriate proportion according to the specifications of HPK1 Antibody (4472S CST), GLK (D1L4G) Rabbit mAb (92427S CST), SLP-76 (D1R1A) Rabbit mAb (70896S CST), Phospho-SLP-76 (Ser376) (D7S1K) XP® Rabbit mAb (92711T CST) and β-actin Mouse Monoclonal antibody (BE0021 easybio), then incubated overnight with slow shaking at 4° C., and washed 3 times with PBST for 10 min/time;
(§6) S6: Goat Anti-Rabbit IgG (H&L)-HRP Conjugated (BE0101 easybio) or Goat Anti-Mouse IgG (H&L)-HRP Conjugated (BE0102 easybio) was selected according to the primary antibody, and the secondary antibody was diluted according to an appropriate proportion according to the specification of the secondary antibody, then incubated for 1 h at room temperature with slow shaking, and washed 3 times with PBST for 10 min/time; and
(§7) S7: an ECL luminescence was added, the results were observed by a developing machine, Western results were quantified using Image J software, and the degradation rates (HPK1 and GLK) or inhibition rates (SLP76 Ser376 phosphorylation) were calculated by comparison with a control group to which no compounds were added, (degradation rate/inhibition rate=1−administration group/control group).

[3] = test system: SLP76 Ser376 phosphorylation; assay: Inhibition of SLP76 Ser376 phosphorylation in Jurkat cells (Western blot); details: Homo sapiens, compound 100 nM
Protocol: as §1, §2, §3, §4, §5, §6, §7

GLK = molecular target: T2, GLK (Homo sapiens, UniProt Q8IVH8); assay: GLK degradation in Jurkat cells (Western blot); details: treatment time 6 h, compound 100 nM
T2 construct: endogenous in cells; host or cells: Jurkat cells
T2 sequence (Q8IVH8 1-894): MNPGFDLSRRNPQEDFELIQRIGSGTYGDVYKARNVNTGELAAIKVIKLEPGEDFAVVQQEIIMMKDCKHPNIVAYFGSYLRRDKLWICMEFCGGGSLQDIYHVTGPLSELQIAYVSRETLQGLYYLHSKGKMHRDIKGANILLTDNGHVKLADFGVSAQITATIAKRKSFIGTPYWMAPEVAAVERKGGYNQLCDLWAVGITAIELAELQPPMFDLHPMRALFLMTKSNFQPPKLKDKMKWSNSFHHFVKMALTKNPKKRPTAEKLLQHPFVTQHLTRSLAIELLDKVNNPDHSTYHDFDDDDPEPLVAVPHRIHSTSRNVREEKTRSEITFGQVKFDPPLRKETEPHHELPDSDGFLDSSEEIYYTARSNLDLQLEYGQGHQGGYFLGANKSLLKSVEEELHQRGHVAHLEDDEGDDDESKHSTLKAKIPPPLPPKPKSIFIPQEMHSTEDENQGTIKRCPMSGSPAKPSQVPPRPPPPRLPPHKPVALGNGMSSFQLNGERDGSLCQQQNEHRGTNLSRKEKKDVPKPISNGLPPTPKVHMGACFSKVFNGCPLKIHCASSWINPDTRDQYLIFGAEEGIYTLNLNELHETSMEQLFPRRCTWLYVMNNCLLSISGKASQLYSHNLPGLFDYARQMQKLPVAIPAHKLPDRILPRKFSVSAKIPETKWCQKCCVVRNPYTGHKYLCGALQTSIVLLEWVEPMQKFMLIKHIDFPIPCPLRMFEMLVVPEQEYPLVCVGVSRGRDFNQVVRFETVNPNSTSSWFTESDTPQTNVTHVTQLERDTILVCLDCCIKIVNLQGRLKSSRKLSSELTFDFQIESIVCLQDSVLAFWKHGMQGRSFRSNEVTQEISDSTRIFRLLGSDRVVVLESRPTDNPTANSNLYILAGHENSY
Protocol: as §1, §2, §3, §4, §5, §6, §7

[4] = treatment time 6 h, read-out: SLP76 phosphorylation inhibition rate

T1 sequence (Q92918 whole entry): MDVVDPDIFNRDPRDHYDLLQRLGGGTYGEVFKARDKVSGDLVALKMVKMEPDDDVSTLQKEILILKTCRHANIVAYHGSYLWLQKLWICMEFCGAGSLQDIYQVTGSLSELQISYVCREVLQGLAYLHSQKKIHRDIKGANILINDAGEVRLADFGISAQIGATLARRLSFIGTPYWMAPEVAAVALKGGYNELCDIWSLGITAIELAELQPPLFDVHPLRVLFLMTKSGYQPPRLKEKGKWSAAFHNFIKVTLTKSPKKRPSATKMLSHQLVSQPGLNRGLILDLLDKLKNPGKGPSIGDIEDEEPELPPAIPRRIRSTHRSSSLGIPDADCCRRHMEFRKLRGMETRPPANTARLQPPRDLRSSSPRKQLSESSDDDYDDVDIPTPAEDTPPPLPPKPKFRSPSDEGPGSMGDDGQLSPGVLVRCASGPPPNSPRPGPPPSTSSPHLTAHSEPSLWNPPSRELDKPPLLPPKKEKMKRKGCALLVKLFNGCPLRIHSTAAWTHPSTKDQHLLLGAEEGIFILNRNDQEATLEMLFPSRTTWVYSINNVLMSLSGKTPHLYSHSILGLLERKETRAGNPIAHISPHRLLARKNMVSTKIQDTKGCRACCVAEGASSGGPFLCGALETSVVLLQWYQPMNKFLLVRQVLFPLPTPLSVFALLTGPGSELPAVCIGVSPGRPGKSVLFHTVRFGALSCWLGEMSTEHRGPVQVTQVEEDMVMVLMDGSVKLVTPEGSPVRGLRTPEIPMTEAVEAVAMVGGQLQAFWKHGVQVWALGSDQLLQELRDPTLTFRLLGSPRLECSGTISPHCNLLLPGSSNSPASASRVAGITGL

| Compound | GLK degradation rate (GLK) | HPK1 degradation rate at 0.1 µM (HPK1 [2]; 6 h, compound 100 nM) | inhibition at 0.1 µM [3, 4] | further results |
| --- | --- | --- | --- | --- |
| CC(C)(O)C#Cc1cccc(COc2cc(-c3cnc(C4CCN(C(=O)CCOCCOCCOCCOCCOc5cccc6c5C(=O)N(C5CCC(=O)NC5=O)C6=O)CC4)s3)cnc2N)c1 (centres unmarked) [Compound C7] | – | – | – | Degradation rate (48 h) (HPK1 [1]): −40%; Degradation rate (12 h) (HPK1 [2]; HPK1, compound 100 nM): 58%; Degradation rate (24 h) (HPK1 [2]; HPK1, compound 100 nM): 86%; Degradation rate (72 h) (HPK1 [2]; HPK1, compound 100 nM, 72 h): −9%; Degradation rate (10 nM) (HPK1 [2]): 72%; Degradation rate (100 nM) (HPK1 [2]; compound 100 nM): 68% |
| CC(C)(O)C#Cc1cccc(COc2cc(-c3cnc(C4CCN(C(=O)CCCCCCCCCOc5cccc6c5C(=O)N(C5CCC(=O)NC5=O)C6=O)CC4)s3)cnc2N)c1 (centres unmarked) [Compound C3] | – | – | – | Degradation rate (48 h) (HPK1 [1]): 11%; Degradation rate (3 h) (HPK1 [2]; HPK1, compound 100 nM, 3 h): 54%; Degradation rate (6 h) (HPK1 [2]; HPK1, compound 100 nM, 6 h): 52%; Degradation rate (12 h) (HPK1 [2]; HPK1, compound 100 nM): 58%; Degradation rate (24 h) (HPK1 [2]; HPK1, compound 100 nM): 3%; Degradation rate (10 nM) (HPK1 [2]): 15%; Degradation rate (100 nM) (HPK1 [2]; compound 100 nM): 75%; Dmax at 0.1 µM (HPK1 [2]; compound 100 nM, maximum over different time points, read-out: Maximum degradation rate of HPK1): 62%; inhibition at 0.1 µM ([3]; maximum over different time points, read-out: Maximum inhibition rate of SLP76 Ser376 phosphorylation): 81% |
| CC(C)(O)C#Cc1cccc(COc2cc(-c3cnc(C4CCN(C(=O)CCNC(=O)CCCCOc5cccc6c5C(=O)N(C5CCC(=O)NC5=O)C6=O)CC4)s3)cnc2N)c1 (centres unmarked) [Compound C14] | 60% | 58% | 26% | – |
| CC(C)(O)C#Cc1cccc(COc2cc(-c3cnc(C4CCN(C(=O)C5CCN(C(=O)CCCCOc6cccc7c6C(=O)N(C6CCC(=O)NC6=O)C7=O)CC5)CC4)s3)cnc2N)c1 (centres unmarked) [Compound C17] | 42% | -7% | 22% | – |
| CC(C)(O)C#Cc1cccc(COc2cc(-c3cnc(C4CCN(C(=O)CCOCCCCCCOc5cccc6c5C(=O)N(C5CCC(=O)NC5=O)C6=O)CC4)s3)cnc2N)c1 (centres unmarked) [Compound C9] | −34% | 46% | 61% | – |
| CC(C)(O)C#Cc1cccc(COc2cc(-c3cnc(C4CCN(C(=O)CCNC(=O)CCCCCOc5cccc6c5C(=O)N(C5CCC(=O)NC5=O)C6=O)CC4)s3)cnc2N)c1 (centres unmarked) [Compound C15] | 38% | -27% | -7% | – |
| CC(C)(O)C#Cc1cccc(COc2cc(-c3cnc(C4CCN(C(=O)CCOCCCCCCCCOc5cccc6c5C(=O)N(C5CCC(=O)NC5=O)C6=O)CC4)s3)cnc2N)c1 (centres unmarked) [Compound C11] | −36% | 30% | – | – |
| CN1C(=O)CCC(N2C(=O)c3cccc(OCCCCCCCC(=O)N4CCC(c5ncc(-c6cnc(N)c(OCc7cccc(C#CC(C)(C)O)c7)c6)s5)CC4)c3C2=O)C1=O (centres unmarked) [Compound C2] | – | – | – | Degradation rate (10 nM) (HPK1 [2]): 39%; Degradation rate (100 nM) (HPK1 [2]; compound 100 nM): 33% |
| CC(C)(O)C#Cc1cccc(COc2cc(-c3cnc(C4CCN(C(=O)CCNC(=O)CCCCCCOc5cccc6c5C(=O)N(C5CCC(=O)NC5=O)C6=O)CC4)s3)cnc2N)c1 (centres unmarked) [Compound C16] | 74% | 49% | 24% | – |
| CC(C)(O)C#Cc1cccc(COc2cc(-c3cnc(C4CCN(C(=O)C5CCN(C(=O)CCCCCOc6cccc7c6C(=O)N(C6CCC(=O)NC6=O)C7=O)CC5)CC4)s3)cnc2N)c1 (centres unmarked) [Compound C18] | 71% | 39% | 34% | – |
| CC(C)(O)C#Cc1cccc(COc2cc(-c3cnc(C4CCN(C(=O)CCCCCCCOc5cccc6c5C(=O)N(C5CCC(=O)NC5=O)C6=O)CC4)s3)cnc2N)c1 (centres unmarked) [Compound C1] | – | – | – | Degradation rate (10 nM) (HPK1 [2]): 47%; Degradation rate (100 nM) (HPK1 [2]; compound 100 nM): 68% |
| CC(C)(O)C#Cc1cccc(COc2cc(-c3cnc(C4CCN(C(=O)Cn5cc(COCCOc6cccc7c6C(=O)N(C6CCC(=O)NC6=O)C7=O)nn5)CC4)s3)cnc2N)c1 (centres unmarked) [Compound C20] | 15% | -15% | 7% | HPK1 degradation rate (12 h) (HPK1 [2]; 12 h (in-cell remark of Table 4), compound 100 nM): 41% |
| CC(C)(O)C#Cc1cccc(COc2cc(-c3cnc(C4CCN(C(=O)C5CCN(C(=O)CCCCCCOc6cccc7c6C(=O)N(C6CCC(=O)NC6=O)C7=O)CC5)CC4)s3)cnc2N)c1 (centres unmarked) [Compound C19] | – | – | 3% | – |
| CC(C)(O)C#Cc1cccc(COc2cc(-c3cnc(C4CCN(C(=O)CCOCCCCCOc5cccc6c5C(=O)N(C5CCC(=O)NC5=O)C6=O)CC4)s3)cnc2N)c1 (centres unmarked) [Compound C8] | 34% | 66% | 51% | – |
| CC(C)(O)C#Cc1cccc(COc2cc(-c3cnc(C4CCN(C(=O)CCNC(=O)CCCOc5cccc6c5C(=O)N(C5CCC(=O)NC5=O)C6=O)CC4)s3)cnc2N)c1 (centres unmarked) [Compound C13] | 43% | 38% | 4% | – |
